Source: paper PMC3214178, “High-yield production of aromatic peroxygenase by the agaric fungus Marasmius rotula” (AMB Express, 2011)

Assays:
Type in all cases: biochemical
[1] = test system: T1, MroAPO (Marasmius rotula aromatic peroxygenase); experiment: spectrophotometric initial rates, veratraldehyde at […] nm; Lineweaver-Burk; details: 2 mM H2O2, sodium phosphate/citrate buffer pH 5.5, 25°C
T1 construct: native secreted heme-thiolate enzyme purified by FPLC from culture liquid of wild-type fungus

[2] = test system: T1, MroAPO (Marasmius rotula aromatic peroxygenase); experiment: spectrophotometric initial rates, 1-naphthol at […] nm; Lineweaver-Burk; details: H2O2 co-substrate (table note 2 mM; methods give start with 20 μl H2O2 (200 μM)), sodium phosphate/citrate buffer pH 5.5, acetonitrile as substrate solvent, 25°C
[3] = test system: T1, MroAPO (Marasmius rotula aromatic peroxygenase); experiment: spectrophotometric initial rates, dimeric DMP quinone at […] nm; Lineweaver-Burk; details: 2 mM H2O2, sodium phosphate/citrate buffer pH 5.5, 25°C
[4] = test system: T1, MroAPO (Marasmius rotula aromatic peroxygenase); experiment: spectrophotometric initial rates, ABTS cation radical at […] nm; Lineweaver-Burk; details: 2 mM H2O2, sodium phosphate/citrate buffer pH 4.5, 25°C

Question: Which Km [1] does the source give for `COc1ccc(CO)cc1OC` [Veratryl alcohol] here?
Answer: 279 µM

Question: Which Km [2] does the source give for `c1ccc2ccccc2c1` [Naphthalene] here?
Answer: 791 µM

Question: How did the Km [3] turn out when `COc1cccc(OC)c1O` [DMP] was run?
Answer: 133 µM

Question: Which Km [4] does the source give for `CCn1c(=NN=c2sc3cc(S(=O)(=O)O)ccc3n2CC)sc2cc(S(=O)(=O)O)ccc21` [ABTS] here?
Answer: 71 µM
